Reference: US9107879B1, “Methods of increasing the cytotoxicity of chemotherapeutic agents with multisubstrate inhibitors of histone, protein-lys, polyamine acetylation, and polyamine metabolism” (Vanderbilt University, priority 2010, dated 2015)
Values belong to the molecule of their own block, whether it stands above or below them.

Columns and labels:
[1] = tested on: DU 145 prostate cancer cells; test: gamma-H2A.X immunofluorescence; type: cell-based; details: 8 hours, 5 nM camptothecin alone
From the text: The immuno fluorescence images on the left and right sides of the middle scheme illustrate this visually. […] Cells were fixed and stained with a rabbit antibody to the histone variant, γ-H2A.X, a marker for DNA double stranded breaks, followed by staining with a fluorescein (FITC)-tagged goat anti rabbit secondary antibody. Nuclei were stained with Hoescht 33345.

[2] = target: T1, p300 catalytic domain (Homo sapiens, UniProt Q09472); test: fluorescent HAT assay kit (Active Motif), 96-well; type: biochemical
T1 construct: the catalytic domain of p300(965-1810); purchased Active Motif, Carlsbad, Calif
T1 sequence (Q09472 965-1810): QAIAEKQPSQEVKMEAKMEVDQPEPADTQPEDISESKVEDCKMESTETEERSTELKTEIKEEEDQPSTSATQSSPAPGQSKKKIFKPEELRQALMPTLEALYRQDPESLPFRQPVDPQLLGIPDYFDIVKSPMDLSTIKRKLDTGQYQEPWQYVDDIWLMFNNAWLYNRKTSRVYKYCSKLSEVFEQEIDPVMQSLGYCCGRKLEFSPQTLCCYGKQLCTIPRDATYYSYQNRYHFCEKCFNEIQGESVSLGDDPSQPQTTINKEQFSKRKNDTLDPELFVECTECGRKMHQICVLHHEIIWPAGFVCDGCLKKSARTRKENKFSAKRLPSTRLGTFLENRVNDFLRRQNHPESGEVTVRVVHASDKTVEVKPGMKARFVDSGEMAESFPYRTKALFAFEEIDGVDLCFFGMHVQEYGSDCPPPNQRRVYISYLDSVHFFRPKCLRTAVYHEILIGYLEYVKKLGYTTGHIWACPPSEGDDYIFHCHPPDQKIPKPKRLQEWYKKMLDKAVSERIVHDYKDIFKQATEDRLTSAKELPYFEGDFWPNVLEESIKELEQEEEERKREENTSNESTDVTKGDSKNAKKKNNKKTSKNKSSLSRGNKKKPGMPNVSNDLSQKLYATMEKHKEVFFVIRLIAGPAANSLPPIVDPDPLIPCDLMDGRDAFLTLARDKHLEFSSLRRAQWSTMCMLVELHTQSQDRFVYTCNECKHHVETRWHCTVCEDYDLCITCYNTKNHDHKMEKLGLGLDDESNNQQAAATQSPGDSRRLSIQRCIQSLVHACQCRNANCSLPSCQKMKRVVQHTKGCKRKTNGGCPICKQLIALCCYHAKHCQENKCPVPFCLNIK
Protocol: (A) Structures of compound 1a (spermidine CoA), and the acetylated side chain of a lysine residue of a polypeptide chain. (B) Inhibition of p300 acetylating activity as a function of 1a concentration. The catalytic domain of recombinant p300 (1284-1660) was assayed under steady state conditions using an N-terminal acetylated histone H4 peptide substrate, Ac-H4(1-19)-NH2. Closed circles represent experimental data points; plain line represents theoretical profile based on data reduction software (Prism) using a one site inhibition model. (C) In vitro assay of p300 activity using a 96-well assay kit (ActivMotif) and an H3 peptide substrate (5-23), according to manufacturer's instructions. Bars represent average of duplicates. […]
Reactions were set up in duplicate following the protocol supplied by the kit. […] Activity is measured in fluorescence units. […]
Assays were performed using the fluorescent HAT assay kit (Active Motif, Carlsbad, Calif.), an H3 peptide as substrate (residues 5-23), the p300 catalytic domain as enzyme, and 50 μM inhibitor in duplicate, according to the manufacturer's instructions. […] The reaction product, CoASH, was detected spectrophotometrically by reaction with 5,5′-dithiobis-2-nitrobenzoic acid (DTNB). Assays were carried out at 30° C. for 30 minutes, conditions which had previously been determined in kinetic assays to sufficient to achieve steady state.

[3] = tested on: endogenous HATs associated with solubilized chromatin; details: literature (Bandyopadhyay et al 2009; Parello et al. 1990); cited from earlier work
[4] = tested on: H358 lung cancer cells; test: [3H]-thymidine incorporation DNA synthesis assay; type: cell-based; details: Homo sapiens, NCI-H358; Example 1: 50 μM 1a (continuous) + 5 nM camptothecin (24 h); 48 hours post treatment; read-out: DNA synthesis rate, % of control rate
[5] = tested on: H358 cells; test: nucleotide excision repair assay (thymidine dimer slot blot); type: cell-based; details: 40 J/m2 UVC then 50 μM 1a; within 24 hours (untreated cells 50%)
Protocol: Also shown are controls for no treatment (“c” minus 1a) or treatment with 1a only (“c” plus 1a). Each lane represents 60 μg protein. […] Each lane represents 60 μg protein.
For NER, a slot blot immunoassay was used to detect the loss of thymidine dimers from the DNA of UVC treated cells as previously described. An antibody specific for cyclobutane pyrimidine dimers, the major photoproduct produced by UVC treatment, was purchased from Kamiya Biomedical Co(Seattle, Wash.; anti-thymidine dimer, clone KTM53) and used at 1:40 dilution.
DNA repair can promote cell survival following DNA damage. Nucleotide excision repair (NER), which requires histone acetylation (Cazzalini et al., 2008, 36: 1713-22) removes bulky DNA adducts such as the intrastrand guanine-adenine crosslinks caused by cisplatin or the intrastrand thymidine dimers produced by UVC radiation. We assayed NER in the presence or absence of 50 μM 1a using an immunoblot analysis of thymidine dimers in cellular DNA prepared from cells at fixed times after exposure to 40 J/m^2UVC radiation. […] The results support a model in which acetylation of the core histones, accompanied by localized relaxation of chromatin structure, may be necessary to initiate DNA repair, possibly by allowing access of DNA to multiprotein repair complex involved in nucleotide excision repair, or by promoting recruitment of those factors. […]

SMILES: CC[C@@]1(O)C(=O)OCc2c1cc1n(c2=O)Cc2cc3ccccc3nc2-1 [camptothecin]
DNA damage by γ-H2A.X staining, single agent [1]: minimal damage

p300 HAT inhibition in vitro ([2]; kit assay, 2a at 50 μM): HAT inhibitors
SMILES: CC(=O)NCCSCC(=O)NCCCNCCCCNCCCN [spm-3]

SMILES: CC(=O)NCCSCC(=O)NCCCNCCCCN [3a]
inhibitory activity against endogenous HAT [3]: lower inhibitory effect than Spd-2a

suppression of p300HAT-mediated incorporation of acetyl groups relative to control enzyme ([2]; 50 μM inhibitor, H3 peptide substrate, FIG. 1C): 88%
SMILES: CC(C)(COP(=O)(O)OP(=O)(O)OC[C@H]1O[C@@H](n2cnc3c(N)ncnc32)[C@H](O)[C@@H]1OP(=O)(O)O)[C@@H](O)C(=O)NCCC(=O)NCCSCC(=O)NCCCNCCCCN [1a, spermidine[N1]-CoA]
activity at 50 µM [4]: ~10% | decrease of thymidine dimers in DNA [5]: 40%
